Experimental data from patent publication US20100298141A1, “SUBSTITUTED PYRIDINE N-OXIDE HERBICIDES” (E. I. DU PONT DE NEMOURS AND COMPANY, priority 2007, published 2010).

Experiments:
Experiment in all cases: Test F preemergence test
johnsongrass = assay type: in vivo, Sorghum halepense; details: scale 0 to 100
Method in brief: (§1)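 Test chemicals were formulated in a non-phytotoxic solvent mixture with surfactant and applied preemergence to planted seeds or postemergence to sugarcane plants. Plants were kept in a greenhouse for 14 to 21 days, then visually evaluated against controls.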

guineagrass = assay type: in vivo, Panicum maximum; details: scale 0 to 100
Method in brief: as §1

broadleaf signalgrass = assay type: in vivo, Brachiaria platyphylla; details: scale 0 to 100; for Plant response rating, Signalgrass: 31 g ai/ha
Method in brief: as §1

Italian ryegrass = assay type: in vivo, Lolium multiflorum; details: scale 0 to 100
Method in brief: as §1

common purslane = assay type: in vivo, Portulaca oleracea; details: scale 0 to 100
Method in brief: as §1

bermudagrass = assay type: in vivo, Cynodon dactylon; details: scale 0 to 100
Method in brief: as §1

pitted morningglory = assay type: in vivo, Ipomoea lacunosa; details: scale 0 to 100
Method in brief: as §1

goosegrass = assay type: in vivo, Eleusine indica; details: scale 0 to 100
Method in brief: as §1

field bindweed = assay type: in vivo, Convolvulus arvensis; details: scale 0 to 100
Method in brief: as §1

Surinam grass = assay type: in vivo, Brachiaria decumbens; details: scale 0 to 100; for Plant response rating, Surinam Grass: 31 g ai/ha
Method in brief: as §1

southern sandbur = assay type: in vivo, Cenchrus echinatus; details: scale 0 to 100; for Plant response rating, Sandbur: 31 g ai/ha
Method in brief: as §1

prickly sida = assay type: in vivo, Sida spinosa; details: scale 0 to 100
Method in brief: as §1

itchgrass = assay type: in vivo, Rottboellia cochinchinensis; details: scale 0 to 100
Method in brief: as §1

naked crabgrass = assay type: in vivo, Digitaria nuda; details: scale 0 to 100
Method in brief: as §1

purple nutsedge = assay type: in vivo, Cyperus rotundus; details: scale 0 to 100
Method in brief: as §1

common ragweed = assay type: in vivo, Ambrosia elation; details: scale 0 to 100
Method in brief: as §1

`Cc1cc[n+]([O-])c(S(=O)(=O)C(C)c2c(C(F)(F)F)nn(C)c2OC(F)F)c1` (centres unmarked) [Compound 11] was tested, and the “Johnsongrass plant response rating” value (johnsongrass; 62 g ai/ha, Preemergence) was 90, the “Johnsongrass plant response rating” value (johnsongrass; 125 g ai/ha, preemergence) was 95 and the “Plant response rating, Johnsongrass” value (johnsongrass; Preemergence, 16 g ai/ha) was 70. The “Plant response rating, Johnsongrass” value (johnsongrass; Preemergence, 31 g ai/ha) was 70, the “Guineagrass plant response rating” value (guineagrass; 62 g ai/ha, Preemergence) was 100 and the “Guineagrass plant response rating” value (guineagrass; 125 g ai/ha, preemergence) was 100. The “Plant response rating, Guineagrass” value (guineagrass; Preemergence, 16 g ai/ha) was 70, the “Plant response rating, Guineagrass” value (guineagrass; Preemergence, 31 g ai/ha) was 90 and the “Signalgrass plant response rating” value (broadleaf signalgrass; 62 g ai/ha, Preemergence) was 75. The “Signalgrass plant response rating” value (broadleaf signalgrass; 125 g ai/ha, preemergence) was 75, the “Plant response rating, Signalgrass” value (broadleaf signalgrass; Preemergence) was 65 and the “Ryegrass, Italian plant response rating” value (Italian ryegrass; 62 g ai/ha, Preemergence) was 75. The “Ryegrass, Italian plant response rating” value (Italian ryegrass; 125 g ai/ha, preemergence) was 95, the “Plant response rating, Ryegrass, Italian” value (Italian ryegrass; Preemergence, 16 g ai/ha) was 35 and the “Plant response rating, Ryegrass, Italian” value (Italian ryegrass; Preemergence, 31 g ai/ha) was 50. For the same molecule, the “Purslane plant response rating” value (common purslane; 62 g ai/ha, Preemergence) was 70, the “Purslane plant response rating” value (common purslane; 125 g ai/ha, preemergence) was 80 and the “Plant response rating, Purslane” value (common purslane; Preemergence, 16 g ai/ha) was 40. For the same molecule, the “Plant response rating, Purslane” value (common purslane; Preemergence, 31 g ai/ha) was 60, the “Bermudagrass plant response rating” value (bermudagrass; 62 g ai/ha, Preemergence) was 98 and the “Bermudagrass plant response rating” value (bermudagrass; 125 g ai/ha, preemergence) was 100. For the same molecule, the “Plant response rating, Bermudagrass” value (bermudagrass; Preemergence, 16 g ai/ha) was 35, the “Plant response rating, Bermudagrass” value (bermudagrass; Preemergence, 31 g ai/ha) was 70 and the “Morningglory plant response rating” value (pitted morningglory; 62 g ai/ha, Preemergence) was 90. For the same molecule, the “Morningglory plant response rating” value (pitted morningglory; 125 g ai/ha, preemergence) was 100, the “Plant response rating, Morningglory” value (pitted morningglory; Preemergence, 16 g ai/ha) was 0 and the “Plant response rating, Morningglory” value (pitted morningglory; Preemergence, 31 g ai/ha) was 30. The “Goosegrass plant response rating” value (goosegrass; 62 g ai/ha, Preemergence) was 98, the “Goosegrass plant response rating” value (goosegrass; 125 g ai/ha, preemergence) was 100 and the “Plant response rating, Goosegrass” value (goosegrass; Preemergence, 16 g ai/ha) was 70. For the same molecule, the “Plant response rating, Goosegrass” value (goosegrass; Preemergence, 31 g ai/ha) was 90, the “Field Bindweed plant response rating” value (field bindweed; 62 g ai/ha, Preemergence) was 60 and the “Field Bindweed plant response rating” value (field bindweed; 125 g ai/ha, preemergence) was 75. For the same molecule, the “Plant response rating, Field Bindweed” value (field bindweed; Preemergence, 16 g ai/ha) was 0, the “Plant response rating, Field Bindweed” value (field bindweed; Preemergence, 31 g ai/ha) was 0 and the “Surinam Grass plant response rating” value (Surinam grass; 62 g ai/ha, Preemergence) was 100. For the same molecule, the “Surinam Grass plant response rating” value (Surinam grass; 125 g ai/ha, preemergence) was 100, the “Plant response rating, Surinam Grass” value (Surinam grass; Preemergence) was 98 and the “Sandbur plant response rating” value (southern sandbur; 62 g ai/ha, Preemergence) was 100. For the same molecule, the “Sandbur plant response rating” value (southern sandbur; 125 g ai/ha, preemergence) was 100, the “Plant response rating, Sandbur” value (southern sandbur; Preemergence) was 95 and the “Prickly Sida plant response rating” value (prickly sida; 62 g ai/ha, Preemergence) was 95. The “Prickly Sida plant response rating” value (prickly sida; 125 g ai/ha, preemergence) was 100, the “Plant response rating, Prickly Sida” value (prickly sida; Preemergence, 16 g ai/ha) was 0 and the “Plant response rating, Prickly Sida” value (prickly sida; Preemergence, 31 g ai/ha) was 70. The “Itchgrass plant response rating” value (itchgrass; 62 g ai/ha, Preemergence) was 70, the “Itchgrass plant response rating” value (itchgrass; 125 g ai/ha, preemergence) was 95 and the “Plant response rating, Itchgrass” value (itchgrass; Preemergence, 16 g ai/ha) was 0. For the same molecule, the “Plant response rating, Itchgrass” value (itchgrass; Preemergence, 31 g ai/ha) was 40, the “Crabgrass, Naked plant response rating” value (naked crabgrass; 62 g ai/ha, Preemergence) was 98 and the “Crabgrass, Naked plant response rating” value (naked crabgrass; 125 g ai/ha, preemergence) was 100. For the same molecule, the “Plant response rating, Crabgrass, Naked” value (naked crabgrass; Preemergence, 16 g ai/ha) was 90, the “Plant response rating, Crabgrass, Naked” value (naked crabgrass; Preemergence, 31 g ai/ha) was 98 and the “Purple Nutsedge plant response rating” value (purple nutsedge; 62 g ai/ha, Preemergence) was 100. For the same molecule, the “Purple Nutsedge plant response rating” value (purple nutsedge; 125 g ai/ha, preemergence) was 100, the “Plant response rating, Purple Nutsedge” value (purple nutsedge; Preemergence, 16 g ai/ha) was 25 and the “Plant response rating, Purple Nutsedge” value (purple nutsedge; Preemergence, 31 g ai/ha) was 65. The “Ragweed plant response rating” value (common ragweed; 62 g ai/ha, Preemergence) was 75, the “Ragweed plant response rating” value (common ragweed; 125 g ai/ha, preemergence) was 100 and the “Plant response rating, Ragweed” value (common ragweed; Preemergence, 16 g ai/ha) was 30. The “Plant response rating, Ragweed” value (common ragweed; Preemergence, 31 g ai/ha) was 65.
`Cn1nc(C(F)(F)F)c(CS(=O)(=O)c2cccc[n+]2[O-])c1OCC(F)(F)F` [Compound 29] was tested, and the “Johnsongrass plant response rating” value (johnsongrass; 62 g ai/ha, Preemergence) was 100, the “Johnsongrass plant response rating” value (johnsongrass; 125 g ai/ha, preemergence) was 100 and the “Plant response rating, Johnsongrass” value (johnsongrass; Preemergence, 16 g ai/ha) was 70. The “Plant response rating, Johnsongrass” value (johnsongrass; Preemergence, 31 g ai/ha) was 100, the “Guineagrass plant response rating” value (guineagrass; 62 g ai/ha, Preemergence) was 100 and the “Guineagrass plant response rating” value (guineagrass; 125 g ai/ha, preemergence) was 100. The “Plant response rating, Guineagrass” value (guineagrass; Preemergence, 16 g ai/ha) was 90, the “Plant response rating, Guineagrass” value (guineagrass; Preemergence, 31 g ai/ha) was 100 and the “Signalgrass plant response rating” value (broadleaf signalgrass; 62 g ai/ha, Preemergence) was 100. The “Signalgrass plant response rating” value (broadleaf signalgrass; 125 g ai/ha, preemergence) was 100, the “Plant response rating, Signalgrass” value (broadleaf signalgrass; Preemergence) was 50 and the “Ryegrass, Italian plant response rating” value (Italian ryegrass; 62 g ai/ha, Preemergence) was 100. The “Ryegrass, Italian plant response rating” value (Italian ryegrass; 125 g ai/ha, preemergence) was 100, the “Plant response rating, Ryegrass, Italian” value (Italian ryegrass; Preemergence, 16 g ai/ha) was 65 and the “Plant response rating, Ryegrass, Italian” value (Italian ryegrass; Preemergence, 31 g ai/ha) was 100. The “Purslane plant response rating” value (common purslane; 62 g ai/ha, Preemergence) was 30, the “Purslane plant response rating” value (common purslane; 125 g ai/ha, preemergence) was 30 and the “Plant response rating, Purslane” value (common purslane; Preemergence, 16 g ai/ha) was 0. The “Plant response rating, Purslane” value (common purslane; Preemergence, 31 g ai/ha) was 0, the “Bermudagrass plant response rating” value (bermudagrass; 125 g ai/ha, preemergence) was 100 and the “Plant response rating, Bermudagrass” value (bermudagrass; Preemergence, 16 g ai/ha) was 40. The “Plant response rating, Bermudagrass” value (bermudagrass; Preemergence, 31 g ai/ha) was 90, the “Morningglory plant response rating” value (pitted morningglory; 62 g ai/ha, Preemergence) was 60 and the “Morningglory plant response rating” value (pitted morningglory; 125 g ai/ha, preemergence) was 80. For the same molecule, the “Plant response rating, Morningglory” value (pitted morningglory; Preemergence, 16 g ai/ha) was 0, the “Plant response rating, Morningglory” value (pitted morningglory; Preemergence, 31 g ai/ha) was 0 and the “Goosegrass plant response rating” value (goosegrass; 62 g ai/ha, Preemergence) was 100. For the same molecule, the “Goosegrass plant response rating” value (goosegrass; 125 g ai/ha, preemergence) was 100, the “Plant response rating, Goosegrass” value (goosegrass; Preemergence, 16 g ai/ha) was 65 and the “Plant response rating, Goosegrass” value (goosegrass; Preemergence, 31 g ai/ha) was 100. The “Field Bindweed plant response rating” value (field bindweed; 62 g ai/ha, Preemergence) was 0, the “Field Bindweed plant response rating” value (field bindweed; 125 g ai/ha, preemergence) was 0 and the “Plant response rating, Field Bindweed” value (field bindweed; Preemergence, 16 g ai/ha) was 0. The “Plant response rating, Field Bindweed” value (field bindweed; Preemergence, 31 g ai/ha) was 0, the “Surinam Grass plant response rating” value (Surinam grass; 62 g ai/ha, Preemergence) was 100 and the “Surinam Grass plant response rating” value (Surinam grass; 125 g ai/ha, preemergence) was 100. The “Plant response rating, Surinam Grass” value (Surinam grass; Preemergence) was 75, the “Sandbur plant response rating” value (southern sandbur; 62 g ai/ha, Preemergence) was 100 and the “Sandbur plant response rating” value (southern sandbur; 125 g ai/ha, preemergence) was 100. The “Plant response rating, Sandbur” value (southern sandbur; Preemergence) was 100, the “Prickly Sida plant response rating” value (prickly sida; 62 g ai/ha, Preemergence) was 95 and the “Prickly Sida plant response rating” value (prickly sida; 125 g ai/ha, preemergence) was 100. For the same molecule, the “Plant response rating, Prickly Sida” value (prickly sida; Preemergence, 16 g ai/ha) was 40, the “Plant response rating, Prickly Sida” value (prickly sida; Preemergence, 31 g ai/ha) was 95 and the “Itchgrass plant response rating” value (itchgrass; 62 g ai/ha, Preemergence) was 75. The “Itchgrass plant response rating” value (itchgrass; 125 g ai/ha, preemergence) was 95, the “Plant response rating, Itchgrass” value (itchgrass; Preemergence, 16 g ai/ha) was 0 and the “Plant response rating, Itchgrass” value (itchgrass; Preemergence, 31 g ai/ha) was 30. For the same molecule, the “Crabgrass, Naked plant response rating” value (naked crabgrass; 62 g ai/ha, Preemergence) was 100, the “Crabgrass, Naked plant response rating” value (naked crabgrass; 125 g ai/ha, preemergence) was 100 and the “Plant response rating, Crabgrass, Naked” value (naked crabgrass; Preemergence, 31 g ai/ha) was 80. The “Purple Nutsedge plant response rating” value (purple nutsedge; 125 g ai/ha, preemergence) was 75, the “Plant response rating, Purple Nutsedge” value (purple nutsedge; Preemergence, 16 g ai/ha) was 20 and the “Plant response rating, Purple Nutsedge” value (purple nutsedge; Preemergence, 31 g ai/ha) was 35. The “Ragweed plant response rating” value (common ragweed; 62 g ai/ha, Preemergence) was 70, the “Ragweed plant response rating” value (common ragweed; 125 g ai/ha, preemergence) was 80 and the “Plant response rating, Ragweed” value (common ragweed; Preemergence, 16 g ai/ha) was 0. The “Plant response rating, Ragweed” value (common ragweed; Preemergence, 31 g ai/ha) was 40.
